The subject of one assay is rabbit aortic rings. Kind of assay: Assay B: In Vitro Vascular Smooth Muscle-Response for AII (antagonist activity in rabbit aortic rings). To be noted: Oryctolagus cuniculus, rabbit aorta rings, antagonist at 10^-5 M, read-out: PA2 (converted). Type of assay: cell-based, rabbit (male New Zealand white). The method, then:
Assay B: In Vitro Vascular Smooth Muscle-Response for AII The compounds of the invention were tested for antagonist activity in rabbit aortic rings. Male New Zealand white rabbits (2-2.5 kg) were sacrificed using an overdose of pentobarbital and exsanguinated via the carotid arteries. The thoracic aorta was removed, cleaned of adherent fat and connective tissue and then cut into 3-mm ring segments. The endothelium was removed from the rings by gently sliding a rolled-up piece of filter paper into the vessel lumen. The rings were then mounted in a water-jacketed tissue bath, maintained at 37° C., between moveable and fixed ends of a stainless steel wire with the moveable end attached to an FTO3 Grass transducer coupled to a Model 7D Grass Polygraph for recording isometric force responses. […] The preparations were equilibrated for one hour before approximately one gram of passive tension was placed on the rings. Angiotensin II concentration-response curves were then recorded (3×10^-10 to 1×10^-5 M). Each concentration of AII was allowed to elicit its maximal contraction, and then AII was washed out repeatedly for 30 minutes before rechallenging with a higher concentration of AII. Aorta rings were exposed to the test antagonist at 10^-5 M for 5 minutes before challenging with AII. Adjacent segments of the same aorta ring were used for all concentration-response curves in the presence or absence of the test antagonist. The effectiveness of the test compound was expressed in terms of pA2 values and were calculated according to H. O. Schild [Br. J. Pharmacol. Chemother., 2, 189-206 (1947)]. […] Each test antagonist was evaluated in aorta rings from two rabbits.

Assay [1] has as its target smooth muscle angiotensin II receptor. The experiment in a line: Assay A: Angiotensin II Binding Activity (displacement of 125I-AII, rat uterine membrane preparation). To be noted: 50% displacement of specifically bound 125I-AII; rat uterine membranes; 25° C., 60 min. Here is the method:
Assay A: Angiotensin II Binding Activity
Compounds of the invention were tested for ability to bind to the smooth muscle angiotensin II receptor using a rat uterine membrane preparation. […] Other chemicals were obtained from Sigma Chemical Co. This assay was carried out according to the method of Douglas et al [Endocrinology, 106, 120-124 (1980)]. Rat uterine membranes were prepared from fresh tissue. All procedures were carried out at 4° C. Uteri were stripped of fat and homogenized in phosphate-buffered saline at pH 7.4 containing 5 mM EDTA. The homogenate was centrifuged at 1500×g for 20 min., and the supernatant was recentrifuged at 100,000×g for 60 min. The pellet was resuspended in buffer consisting of 2 mM EDTA and 50 mM Tris-HCl (pH 7.5) to a final protein concentration of 4 mg/ml. […] The reaction was initiated by the addition of membrane protein and the mixture was incubated at 25° C. for 60 min. The incubation was terminated with ice-cold 50 mM Tris-HCl (pH 7.5) and the mixture was filtered to separate membrane-bound labelled peptide from the free ligand. The incubation tube and filter were washed with ice-cold buffer. Filters were assayed for radioactivity in a Micromedic gamma counter. Nonspecific binding was defined as binding in the presence of 10 μM of unlabelled AII. Specific binding was calculated as total binding minus nonspecific binding. […] Binding data were aralyzed by a nonlinear least-squares curve fitting program.

For another assay, the system named is AII pressor response. The experiment in a line: Assay C: In Vivo Intraduodenal Pressor Assay Response for AII Antagonists. On the set-up: species or system rat (male Sprague-Dawley). To be noted: rats; for Inhibition: percent inhibition of AII (30 ng/kg i.v.) pressor response; for Duration: time from peak percent inhibition to 50% of peak. Here is the method:
Assay C: In Vivo Intraduodenal Pressor Assay Response for AII Antagonists
Male Sprague-Dawley rats weighing 225-300 grams were anesthetized with Inactin (100 mg/kg, i.p.) and catheters were implanted into the trachea, femoral artery, femoral vein and duodenum. Arterial pressure was recorded from the femoral artery catheter on a Gould chart recorder (Gould, Cleveland, Ohio). The fe:moral vein catheter was used for injections of angiotensin II, mecamylamine and atropine. The tracheal cathete'r allows for airway patency, and the duodenal catheter was used for intraduodenal (i.d.) administration of test compounds. After surgery, the rats were allowed to equilibrate for 30 minutes. Mecamylamine (3 mg/kg, 0.3 ml/kg) and atropine (400 ug/kg, 0.3 ml/kg) were then given i.v. to produce ganglion blockade. These compounds were administered every 90 minutes throughout the test procedure. Angiotensin II was given in bolus does i.v. (30 ng/kg in saline with 0.5% bovine serum albumin, 0.1 ml/kg) every 10 minutes three times or until the increase in arterial pressure produced was within 3 mmHg for two consecutive AII injections. The last two AII injections were averaged and were taken as the control AII pressor response. Ten minutes after the final control AII injection, the test compound (dissolved in sodium bicarbonate) was administered i.d. at a dose of 30 or 100 mg/kg in a volume of 0.2 ml. Angiotensin II injections were then given 5, 10, 20, 30, 45, 60, 75, 90, and 120 minutes after administration of the test compound and response of arterial pressure was monitored. The response to AII was calculated as percent of the control response and then the percent inhibition is calculated as 100 minus the percent control response. Duration of action of a test compound was defined as the time from peak percent inhibition to 50% of peak. One compound at one dose was tested in each rat. Each test compound was tested in two rats and the values for the two rats were averaged.

The next assay has as its system angiotensin II receptor. To be noted: cited from earlier work; for angiotensin II antagonist activity: binding experiments, functional assays and in vivo tests, literature.
Setting [2] is: only printed value, or first of two printed values.

SMILES strings stand for the structures. Read-outs that look alike come from different tables or passages of the source.

For the compound `CCCCc1nc(C(F)(F)CCC)n(Cc2ccc(-c3ccccc3-c3nnn[nH]3)cc2)n1` [Example 11, 5-[4'-[[3-butyl-5-(1,1-difluorobutyl)-1H-1,2,4-triazol-1-yl]methyl][1,1'-biphenyl]-2-yl]-1H-tetrazole], the Kb in the assay with rabbit aortic rings (setting [2]) is 355 nM; in the assay with rabbit aortic rings (second of two values) it was 170 nM. This compound also registered an IC50 in assay [1] of 160 nM.

With `CCCCc1nc(CCCC)n(Cc2ccc(-c3ccccc3-c3nnn[nH]3)cc2)n1` [Example 3, 5-[4'-[(3,5-dibutyl-1H-1,2,4-triazol-1-yl)methyl][1,1'-biphenyl]2-yl]-1H-tetrazole], in the assay with rabbit aortic rings (setting [2]), the Kb is 2 nM. In the assay on AII pressor response (30 mg/kg i.d.), the Inhibition is recorded as 100% and the Duration was ≥ 200 min. Further, in assay [1], the IC50 is 5.4 nM.

Turning to `CCCCCc1nc(CCCCC)n(Cc2ccc(-c3ccccc3-c3nnn[nH]3)cc2)n1` [Example 13, 5-[4'-[(3,5-dipentyl-1H-1,2,4-triazol-1-yl)methyl][1,1'-biphenyl]-2-yl]-1H-tetrazole], the values for the Kb with rabbit aortic rings (setting [2]) and with rabbit aortic rings (second of two values) were 2 nM and 1.41 nM, respectively.

As to `CCCCc1nc(Cl)c(CC(=O)O)n1Cc1ccccc1Cl` [2-n-butyl-4-chloro-1-(2-chlorobenzyl)imidazole-5-acetic acid], in the assay with angiotensin II receptor, the “angiotensin II antagonist activity” value is “specific competitive angiotensin II antagonist activity”.

In the case of `CCCCc1nc(CCC)nn1Cc1ccc(-c2ccccc2-c2nnn[nH]2)cc1` [Example 14, 5-[4'-[(5-butyl-3-propyl-1H-1,2,4-triazol-1-yl)methyl]-[1,1'-biphenyl]-2-yl]-1H-tetrazole], the Kb in the assay with rabbit aortic rings (setting [2]) is 1.45 nM; in the assay on rabbit aortic rings (second of two values), 1.95 nM. Besides, the IC50 in assay [1] turned out to be 7.2 nM.

Regarding `CNCC(=O)N[C@@H](CCCN=C(N)N)C(=O)N[C@H](C(=O)N[C@@H](Cc1ccc(O)cc1)C(=O)N[C@H](C(=O)N[C@@H](Cc1cnc[nH]1)C(=O)N1CCC[C@H]1C(=O)N[C@@H](C)C(=O)O)C(C)C)C(C)C` [Saralasin], the residual agonist activity result in the assay with angiotensin II receptor (background statement) is “significant residual agonist activity”.

As to `CCCCc1nc(Cl)c(CC(=O)O)n1Cc1ccccc1[N+](=O)[O-]` [2-butyl-4-chloro-1-(2-nitrobenzyl)imidazole-5-acetic acid], the “angiotensin II antagonist activity” value with angiotensin II receptor is given as “specific competitive angiotensin II antagonist activity”.

Take `CCCCc1nc(C(F)(F)CCC)nn1Cc1ccc(-c2ccccc2-c2nnn[nH]2)cc1` [Example 10, 5-[4'-[[5-butyl-3-(1,1-difluorobutyl)-1H-1,2,4-triazol-1-yl]methyl][1,1'-biphenyl]-2-yl]-1H-tetrazole]: the Kb in the assay with rabbit aortic rings (setting [2]) was 6.46 nM. Also, the Kb with rabbit aortic rings (second of two values) was 25.7 nM. Moreover, in the assay with AII pressor response (30 mg/kg i.d.), the Inhibition is listed as 100% and the Duration turned out to be 240 min. The half-inhibitory concentration (IC50) in assay [1] worked out at 4.9 nM.

For `CCCCc1nc(Cl)nn1Cc1ccc(-c2ccccc2C(=O)O)cc1` [Example 6, 4'-[(5-butyl-3-chloro-1H-1,2,4-triazol-1-yl)methyl][1,1'-biphenyl]-2-carboxylic acid], the Kb with rabbit aortic rings (setting [2]) is 204 nM. In the assay with AII pressor response (100 mg/kg i.d.), this compound returned an Inhibition of 90% and a Duration of 120 min.

`CCCCc1nc(CCC(C)C)n(Cc2ccc(-c3ccccc3-c3nnn[nH]3)cc2)n1` [Example 16, 5-[4'-[(3-butyl-5-isopentyl-1H-1,2,4-triazol-1-yl)methyl]-[1,1'-biphenyl]-2-yl]-1H-tetrazole]: the Kb was 1.12 nM in the assay with rabbit aortic rings (setting [2]) and 0.575 nM with rabbit aortic rings (second of two values). The IC50 in assay [1] came out at 6.4 nM.

Take `CCCCc1nc(Cl)n(Cc2ccc(-c3ccccc3C(=O)O)cc2)n1` [Example 8, 4'-[(3-butyl-5-chloro-1H-1,2,4-triazol-1-yl)methyl][1,1'-biphenyl]-2-carboxylic acid]: in assay [1], the IC50 came to 1700 nM.

As for `CCCCc1nc(CCC)n(Cc2ccc(-c3ccccc3-c3nnn[nH]3)cc2)n1` [Example 15, 5-[4'-[(3-butyl-5-propyl-1H-1,2,4-triazol-1-yl)methyl]-[1,1'-biphenyl]-2-yl]-1H-tetrazole], the Kb with rabbit aortic rings (setting [2]) was 4.9 nM; in the assay with rabbit aortic rings (second of two values) it was 5.01 nM. The IC50 in assay [1] was 16 nM.

Turning to `CCCCc1nc(CCCC)n(Cc2ccc(-c3ccccc3C(=O)O)cc2)n1` [Example 2, 4'-[(3,5-dibutyl-1H-1,2.4-triazol-1-yl)methyl][1,1'-biphenyl]-2-carboxylic acid], the Kb in the assay on rabbit aortic rings (setting [2]) was 33.1 nM. For the same compound, in the assay on AII pressor response (30 mg/kg i.d.), the Inhibition worked out at 98%.

With `CCCCc1nc(Cl)nn1Cc1ccc(-c2ccccc2-c2nnn[nH]2)cc1` [Example 7], the Kb in the assay with rabbit aortic rings (setting [2]) was 9.33 nM. The IC50 in assay [1] came to 84 nM.

In the case of `CCCc1nc(CCC)n(Cc2ccc(-c3ccccc3-c3nnn[nH]3)cc2)n1` [Example 12, 5-[4'-[(3,5-dipropyl-1H-1,2,4-triazol-1-yl)methyl][1,1'-biphenyl]-2-yl]-1H-tetrazole], the Kb with rabbit aortic rings (setting [2]) is 2.19 nM; in the assay with rabbit aortic rings (second of two values) it was 2.57 nM. Besides, in assay [1], the half-maximal inhibitory concentration (IC50) is 6 nM.

Regarding `CCCCc1nc(CCC(C)C)nn1Cc1ccc(-c2ccccc2-c2nnn[nH]2)cc1` [Example 17, 5-[4'-[(5-butyl-3-isopentyl-1H-1,2,4-triazol-1-yl]methyl)[1,1'-biphenyl]-2-yl]-1H-tetrazole], the Kb in the assay with rabbit aortic rings (setting [2]) was 2.29 nM; in the assay with rabbit aortic rings (second of two values), 3.98 nM. In assay [1], this compound returned an IC50 of 4 nM.

In the case of `CCCCc1nc(Cl)n(Cc2ccc(-c3ccccc3-c3nnn[nH]3)cc2)n1` [Example 9], the Kb with rabbit aortic rings (setting [2]) is 40.7 nM. Further, in the assay with AII pressor response (30 mg/kg i.d.), the Inhibition was 100% and the Duration was found to be 230 min. The same compound returned a 50% inhibitory concentration (IC50) in assay [1] of 700 nM.

As for `CCCCc1nc(CCCC)n(Cc2ccc(-c3ccccc3C(=O)NNS(=O)(=O)C(F)(F)F)cc2)n1` [Example 5, 4'-[(3,5-dibutyl-1H-1,2,4-triazol-1-yl)methyl][1,1'-biphenyl]-2-carboxylicacid, 2-[(trifluoromethyl)sulfonyl]hydrazide], the Kb in the assay with rabbit aortic rings (setting [2]) is 63.1 nM. In the assay on AII pressor response (100 mg/kg i.d.), this compound gave an Inhibition of 38% and a Duration of 20 to 30 min. In assay [1], this compound came in with an IC50 of 200 nM.

For orientation: IC50 means the midpoint of a concentration-inhibition curve. A lower IC50 goes with inhibition by little substance. As a reminder, the Inhibition is how much of the control response was suppressed. The low end stands for a response near the control, the high end for a response far below the control.

The record behind these values is patent US5098920A, “1H-substituted-1,2,4-triazole compounds and methods of use thereof for treatment of cardiovascular disorders” (G. D. Searle & Co., priority 1990, dated 1992).
